Results from patent US6514997B2, “Antipicornaviral compounds and compositions, their pharmaceutical uses, and materials for their synthesis” (Agouron Pharmaceuticals, Inc., priority 1999, dated 2003).
Where two headings read alike, the source gives them in different places.

Assays:
[1] = tested on: strains of human rhinovirus (HRV); test: Antirhinoviral H1-HeLa cell culture assay (XTT cell protection, EC50), other HRV strains; type: cell-based, human rhinovirus in H1-HeLa cells
Method in brief: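 Protection of H1-HeLa cells from rhinovirus was scored two days post-infection via XTT dye reduction read at 450/650 nm, alongside mock-infected cells for toxicity. CC50/EC50 gives the therapeutic index.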

[2] = tested on: HRV-14; test: Antirhinoviral H1-HeLa cell culture assay (XTT cell protection, EC50), HRV-14; type: cell-based, human rhinovirus (HRV) serotype-14 in H1-HeLa cells; details: Rhinovirus B, HRV14, H1-HeLa
Method in brief: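 XTT dye reduction (450/650 nm) measured survival of H1-HeLa cells two days after HRV-14 infection at m.o.i. 0.13 in the presence of compound, giving EC50. The therapeutic index is CC50 divided by EC50.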

[3] = tested on: H1-HeLa cells; test: Cytotoxicity (CC50) in mock-infected H1-HeLa cells, XTT dye reduction; type: cell-based, human
Method in brief: (§1)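 XTT dye reduction (formazan, 450/650 nm) in H1-HeLa cells, mock-infected, gave CC50.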

[4] = as above; type: cell-based, human; details: human, H1-HeLa cells, mock-infected; line of HRV-14
Method in brief: as §1

[5] = target: T1, Recombinant rhinovirus 3C protease, serotype 14 (Human rhinovirus 14, UniProt P03303); test: Inhibition of rhinovirus 3C protease (FRET assay, kobs/[I]), serotype 14; type: biochemical; details: pH 7.6; HRV-14; read-out: kobs/[I] (3C protease inhibition activity)
T1 construct: Recombinant rhinovirus 3C proteases; made in house
Method in brief: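 kobs/[I] values came from progress curves of reactions started by adding 50-100 nM protease to buffer (50 mM tris pH 7.6, 1 mM EDTA, 2% DMSO) containing compound and ~1 μM quenched DABCYL-EDANS substrate. Rising EDANS fluorescence reported cleavage.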

[6] = H1-HeLa, HRV-1A, read-out: EC50
[7] = Human rhinovirus sp., HRV3, H1-HeLa, HRV-3, read-out: EC50
[8] = Human rhinovirus sp., HRV9, H1-HeLa, HRV-9, read-out: EC50
[9] = Human rhinovirus sp., HRV10, H1-HeLa, HRV-10, read-out: EC50
[10] = Human rhinovirus sp., HRV16, H1-HeLa, HRV-16, read-out: EC50
[11] = Human rhinovirus sp., HRV25, H1-HeLa, HRV-25, read-out: EC50
[12] = Human rhinovirus sp., HRV39, H1-HeLa, HRV-39, read-out: EC50
[13] = Human rhinovirus sp., HRV87, H1-HeLa, HRV-87, read-out: EC50

T1 sequence (P03303 1538-1719): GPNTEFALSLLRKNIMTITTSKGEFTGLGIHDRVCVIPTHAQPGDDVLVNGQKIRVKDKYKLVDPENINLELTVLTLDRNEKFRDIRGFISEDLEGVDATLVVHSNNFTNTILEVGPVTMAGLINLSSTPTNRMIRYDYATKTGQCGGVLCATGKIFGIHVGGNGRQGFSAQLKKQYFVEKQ

| SMILES | EC50 [1, 6] [nM] | EC50 ([1]; H1-HeLa, HRV-2, read-out: EC50) [nM] | EC50 [1, 7] [nM] | EC50 [1, 8] [nM] | EC50 [1, 9] [nM] | EC50 [1, 10] [nM] | EC50 [1, 11] [nM] | EC50 [1, 12] [nM] | EC50 [1, 13] [nM] | EC50 [2] [nM] | CC50 ([3]; line of HRV-2) [nM] | CC50 ([3]; line of HRV-3) [nM] | CC50 ([3]; line of HRV-9) [nM] | CC50 ([3]; line of HRV-10) [nM] | CC50 ([3]; line of HRV-16) [nM] | CC50 ([3]; line of HRV-25) [nM] | CC50 ([3]; line of HRV-39) [nM] | CC50 ([3]; line of HRV-87) [nM] | CC50 at 2 days [4] [nM] | kinact/KI [5] [M⁻¹ s⁻¹] | also measured |
| --- | --- | --- | --- | --- | --- | --- | --- | --- | --- | --- | --- | --- | --- | --- | --- | --- | --- | --- | --- | --- | --- |
| CCOC(=O)/C=C/[C@H](C[C@@H]1CCNC1=O)NC(=O)[C@H](Cc1ccc(F)cc1)n1cccc(NC(=O)c2cc(C)on2)c1=O [Compound 25, trans-(2′S,3′″″S,4S)-4-(3′-(4″-Fluorophenyl)-2′-{3′″-[(5″″-methylisoxazole-3″″-carbonyl)amino]-2′-oxo-2′″H-pyridin-1′″-yl}propionylamino)-5-(2′″″-oxopyrrolidin-3′″″-yl)pent-2-enoic Acid Ethyl Ester] | 15 | 4 | 4 | 10 | 4 | 5 | 22 | 9 | 8 | 2 | > 10000 | > 10000 | > 10000 | > 10000 | > 10000 | > 10000 | > 10000 | > 10000 | > 10000 | 1.25e+06 | CC50 ([3]; line of HRV-1A): > 10000 nM |
| CC[C@@H](C(=O)N[C@H](/C=C/C(=O)OC1CCCC1)C[C@@H]1CCNC1=O)n1cccc(NC(=O)c2cc(Cl)on2)c1=O [Compound 29, trans-(2′S,3″″S,4S)-4-(2′-{3″-[(5′″-Chloroisoxazole-3′″-carbonyl)amino]-2″-oxo-2″H-pyridin-1″-yl}butyrylamino)-5-(2″″-oxopyrroldin-3″″-yl)pent-2-enoic Acid Cyclopentyl Ester] | 46 | – | – | – | 46 | – | – | – | – | 79 | – | – | – | > 10000 | – | – | – | – | > 10000 | 148000 | CC50 ([3]; line of HRV-1A): > 10000 nM |
| CC[C@@H](C(=O)N[C@H](/C=C/C(=O)OC(C)(C)C)C[C@@H]1CCNC1=O)n1cccc(NC(=O)c2cc(C)on2)c1=O [Compound 34, trans-(2′S,3″″S,4S)-4-(2′-{3″-[(5′″-Methylisoxazole-3′″-carbonyl)amino]-2″-oxo-2″H-pyridin-1″-yl}butyrylamino)-5-(2″″-oxopyrrolidin-3″″-yl)pent-2-enoic Acid tert-Butyl Ester] | – | 154 | 61 | 593 | – | 543 | 923 | 441 | 33 | 122 | > 10000 | > 10000 | > 10000 | – | > 10000 | > 10000 | > 10000 | > 10000 | > 10000 | 45100 | – |
| CCOC(=O)/C=C/[C@H](C[C@@H]1CCNC1=O)NC(=O)[C@@H]1CCc2ccc(NC(=O)c3cc(C)on3)c(=O)n21 [Compound 37, trans-(3′S,3′″S,4S)-4-({6′-[(5″-Methylisoxazole-3″-carbonyl)amino]-5′-oxo-1′,2′,3′,5′-tetrahydroindolizine-3′-carbonyl}amino)-5-(2′″-oxopyrrolidin-3′″-yl)-pent-2-enoic Acid Ethyl Ester] | 108 | 37 | 43 | 121 | 41 | 72 | – | 16 | 58 | 162 | > 10000 | > 10000 | > 10000 | > 10000 | > 10000 | > 10000 | > 10000 | > 10000 | > 10000 | 177000 | EC50 ([1]; Human rhinovirus sp., HRV25, H1-HeLa): 162 nM; CC50 ([3]; line of HRV-1A): > 10000 nM |
| CCOC(=O)/C=C/[C@H](C[C@@H]1CCNC1=O)NC(=O)[C@@H]1CCc2c(Cl)cc(NC(=O)c3cc(C)on3)c(=O)n21 [Compound 39, trans-(3′S,3′″S,4S)-4-({8′-Chloro-6′-[(5″-methylisoxazole-3″-carbonyl)amino]-5′-oxo-1′,2′,3′,5′-tetrahydroindolizine-3′-carbonyl}amino)-5-(2′″-oxopyrrolidin-3′″-yl)-pent-2-enoic Acid Ethyl Ester] | 42 | 16 | 39 | 48 | 88 | 57 | 107 | 48 | 17 | 40 | > 10000 | > 10000 | > 10000 | > 10000 | > 10000 | > 10000 | > 10000 | > 10000 | > 10000 | 200000 | CC50 ([3]; line of HRV-1A): > 10000 nM |
| C#CC[C@@H](C(=O)N[C@H](/C=C/C(=O)OC1CCCC1)C[C@@H]1CCNC1=O)n1cccc(NC(=O)c2cc(C)on2)c1=O [Compound 40, trans-(2′S,3′″″S,4S)-4-[2′-(3″-{[1′″-(5″″-Methylisoxazol-3″″-yl)methanoyl]amino}-2′″-oxo-2′″H-pyridin-1′″-yl)pent-4″-ynoylamino]-5-(2′″″-oxopyrrolidin-3′″″-yl)pent-2-enoic Acid Cyclopentyl Ester] | – | 52 | 56 | 219 | – | 177 | 490 | 163 | 83 | 27 | > 10000 | > 10000 | > 10000 | – | > 10000 | > 10000 | > 10000 | > 10000 | > 10000 | 186000 | EC50 ([1]; H1-HeLa, HRV-23, read-out: EC50): 55 nM; EC50 ([1]; Human rhinovirus sp., H1-HeLa, HRV-Hanks, read-out: EC50): 115 nM; EC50 ([1]; Human rhinovirus sp., HRV11, H1-HeLa, HRV-11, read-out: EC50): 6 nM; EC50 ([1]; Human rhinovirus sp., HRV13, H1-HeLa, HRV-13, read-out: EC50): 148 nM; EC50 ([1]; Human rhinovirus sp., HRV19, H1-HeLa, HRV-19, read-out: EC50): 60 nM; EC50 ([1]; Human rhinovirus sp., HRV78, H1-HeLa, HRV-78, read-out: EC50): 123 nM; CC50 ([3]; line of HRV-11): > 10000 nM; CC50 ([3]; line of HRV-13): > 10000 nM; CC50 ([3]; line of HRV-19): > 10000 nM; CC50 ([3]; line of HRV-23): > 10000 nM; CC50 ([3]; line of HRV-78): > 10000 nM; CC50 ([3]; line of HRV-Hanks): > 10000 nM |
| C#CC[C@@H](C(=O)N[C@H](/C=C(\C)C(=O)OCC)C[C@@H]1CCNC1=O)n1cccc(NC(=O)c2cc(C)on2)c1=O [Compound 44, trans-(2′S,3′″″S,4S)-2-Methyl-4-[2′-(3″-{[1′″-(5″″-methylisoxazol-3″″-yl)methanoyl]amino}-2′″-oxo-2′″H-pyridin-1′″-yl)pent-4″-ynoylamino]-5-(2′″″-oxopyrrolidin-3′″″-yl)pent-2-enoic Acid Ethyl Ester] | – | 1180 | – | – | 562 | 1090 | 1220 | > 1000 | – | 1460 | > 10000 | – | – | > 10000 | > 10000 | > 10000 | > 10000 | – | > 10000 | 12500 | – |
